Assay results from patent publication US11046699B2, “Pyrazolo-pyrimidin-amino-cycloalkyl compounds and their therapeutic uses” (RAPT THERAPEUTICS, INC., priority 2018, dated 2021).

target: GCN2 (Homo sapiens, UniProt Q9P2K8); assay: GCN2 enzymatic endpoint assay: phosphorylation of GFP-eIF2α measured by TR-FRET (Lanthascreen); type: biochemical; settings: GCN2 biochemical IC50; 4 nM GCN2, 2 μM ATP, 80 nM GFP-eIF2α, 90 min RT; read-out: GCN2 activity
Outline: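 Endpoint GCN2 reaction with low ATP (2 μM) and 80 nM GFP-eIF2α, room temperature, 90 minutes. Detection mix with EDTA and Tb-labelled antibody; 520 nm/495 nm emission ratio reported.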

Sequence of GCN2 (Q9P2K8 whole entry): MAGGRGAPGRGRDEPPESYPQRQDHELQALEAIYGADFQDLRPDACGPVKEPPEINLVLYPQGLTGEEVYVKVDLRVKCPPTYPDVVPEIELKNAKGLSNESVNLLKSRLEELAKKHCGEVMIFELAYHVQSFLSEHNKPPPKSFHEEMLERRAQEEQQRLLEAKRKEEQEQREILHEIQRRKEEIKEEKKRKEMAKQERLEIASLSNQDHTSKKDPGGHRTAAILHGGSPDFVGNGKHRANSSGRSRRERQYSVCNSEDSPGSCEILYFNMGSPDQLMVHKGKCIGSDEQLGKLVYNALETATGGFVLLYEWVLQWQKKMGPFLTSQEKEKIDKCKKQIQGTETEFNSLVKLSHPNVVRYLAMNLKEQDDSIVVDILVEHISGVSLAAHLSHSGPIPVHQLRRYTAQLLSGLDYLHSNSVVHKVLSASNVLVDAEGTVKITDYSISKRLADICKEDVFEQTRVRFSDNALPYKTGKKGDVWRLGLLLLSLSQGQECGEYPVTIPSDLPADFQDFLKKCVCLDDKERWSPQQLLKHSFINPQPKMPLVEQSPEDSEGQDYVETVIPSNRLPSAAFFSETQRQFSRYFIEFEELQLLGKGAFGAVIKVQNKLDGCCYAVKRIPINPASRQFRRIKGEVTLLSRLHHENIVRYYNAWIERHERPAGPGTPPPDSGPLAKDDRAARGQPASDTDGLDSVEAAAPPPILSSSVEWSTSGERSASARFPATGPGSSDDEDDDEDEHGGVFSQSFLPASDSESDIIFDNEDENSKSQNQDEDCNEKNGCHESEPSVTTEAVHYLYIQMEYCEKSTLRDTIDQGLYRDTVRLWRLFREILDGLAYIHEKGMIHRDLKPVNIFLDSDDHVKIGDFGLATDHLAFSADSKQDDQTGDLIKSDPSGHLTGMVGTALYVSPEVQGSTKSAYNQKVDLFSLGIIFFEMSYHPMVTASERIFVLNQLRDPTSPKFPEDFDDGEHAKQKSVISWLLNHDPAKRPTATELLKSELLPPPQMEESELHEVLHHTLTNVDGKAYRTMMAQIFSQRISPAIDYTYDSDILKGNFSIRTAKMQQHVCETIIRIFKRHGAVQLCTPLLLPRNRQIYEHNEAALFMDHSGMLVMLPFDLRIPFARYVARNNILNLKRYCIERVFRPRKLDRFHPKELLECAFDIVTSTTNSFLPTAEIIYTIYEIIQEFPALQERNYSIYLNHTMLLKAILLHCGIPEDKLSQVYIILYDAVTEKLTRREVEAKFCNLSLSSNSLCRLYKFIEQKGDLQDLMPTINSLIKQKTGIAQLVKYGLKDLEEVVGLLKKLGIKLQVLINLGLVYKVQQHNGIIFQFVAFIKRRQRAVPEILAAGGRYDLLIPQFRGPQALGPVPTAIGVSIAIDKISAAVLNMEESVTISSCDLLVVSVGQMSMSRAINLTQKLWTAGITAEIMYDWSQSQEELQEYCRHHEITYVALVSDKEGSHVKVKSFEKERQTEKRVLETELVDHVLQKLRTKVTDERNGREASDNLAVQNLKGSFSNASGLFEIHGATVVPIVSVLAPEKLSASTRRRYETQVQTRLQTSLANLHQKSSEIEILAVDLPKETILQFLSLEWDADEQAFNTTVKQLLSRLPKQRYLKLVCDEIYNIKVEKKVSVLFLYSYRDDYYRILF

| Compound | IC50 [nM] |
| --- | --- |
| CNC(=O)[C@]1(C)CC[C@@H](Nc2ncc3c(Br)nn(-c4cc(Cl)cc([C@H](C)N)c4)c3n2)C1 [Example 64, (1R,3R)-3-((1-(3-((S)-1-aminoethyl)-5-chlorophenyl)-3-bromo-1H-pyrazolo[3,4-d]pyrimidin-6-yl)amino)-N,1-dimethylcyclopentane-1-carboxamide] | < 25 |
| Brc1nn(-c2ccc3ncccc3c2)c2nc(N[C@@H]3CC[C@@H](c4ncc[nH]4)C3)ncc12 [Example 25, N-((1R,3R)-3-(1H-imidazol-2-yl)cyclopentyl)-3-bromo-1-(quinolin-6-yl)-1H-pyrazolo[3,4-d]pyrimidin-6-amine] | 25 to 200 |
| CNC(=O)[C@]1(C)CC[C@@H](Nc2ncc3c(Br)nn(-c4ccc5ncccc5c4)c3n2)C1 (single isomer, unassigned) [Example 18] | 25 to 200 |

same assay, conditions: tested as described in Example 77; compound and/or hydrochloride, dihydrochloride or trifluoroacetic acid salt; read-out: IC 50 Activity

| Compound | IC50 [nM] |
| --- | --- |
| CNC(=O)[C@]1(C)CC[C@@H](Nc2ncc3c(Br)nn(-c4ccc5ncc(NC(=O)CCOC)cc5c4)c3n2)C1 [(1R,3R)-3-[[3-bromo-1-[3-(3-methoxy-propanoylamino)-6-quinolyl]pyrazolo[3,4-d]pyrimidin-6-yl]amino]-N,1-dimethyl-cyclopentanecarboxamide] | 25 to 200 |
| CNC(=O)[C@]1(C)CC[C@@H](Nc2ncc3c(Br)nn(-c4ccc(C#N)c(OCCO)c4)c3n2)C1 [(1R,3R)-3-[[3-bromo-1-[4-cyano-3-(2-hydroxyethoxy)phenyl]pyrazolo[3,4-d]pyrimidin-6-yl]amino]-N,1-dimethyl-cyclopentanecarboxamide] | 25 to 200 |
| CS(=O)(=O)CCNC(=O)[C@@H]1CC[C@@H](Nc2ncc3c(Br)nn(-c4cc(F)c5ncccc5c4)c3n2)C1 [(1R,3R)-3-((3-bromo-1-(8-fluoroquinolin-6-yl)-1H-pyrazolo[3,4-d]pyrimidin-6-yl)amino)-N-(2-(methylsulfonyl)ethyl)cyclo-pentane-1-carboxamide] | 200 to 500 |
| CNC(=O)[C@]1(C)CC[C@@H](Nc2ncc3c(Br)nn(-c4cc(CCNC(=O)OC)c5ncccc5c4)c3n2)C1 [methyl N-[2-[6-[3-bromo-6-[[(1R,3R)-3-methyl-3-(methylcarbamoyl)cyclopentyl]amino]pyrazolo[3,4-d]pyrimidin-1-yl]-8-quinolyl]ethyl]carbamate] | 25 to 200 |
| CNC(=O)[C@]1(CC(F)F)CC[C@@H](Nc2ncc3c(Br)nn(-c4ccc(-c5nnc(C)o5)cc4)c3n2)C1 [(1R,3R)-3-[[3-bromo-1-[4-(5-methyl-1,3,4-oxadiazol-2-yl)phenyl]pyrazolo[3,4-d]pyrimidin-6-yl]amino]-1-(2,2-difluoroethyl)-N-methyl-cyclopentanecarboxamide] | 25 to 200 |
| O=C(Nc1cnn(C2CC2)c1)[C@@H]1CC[C@@H](Nc2ncc3c(Br)nn(-c4cc(F)c5ncccc5c4)c3n2)C1 [(1R,3R)-3-((3-bromo-1-(8-fluoroquinolin-6-yl)-1H-pyrazolo[3,4-d]pyrimidin-6-yl)amino)-N-(1-cyclopropyl-1H-pyrazol-4-yl)cyclopentane-1-carboxamide] | 200 to 500 |
| CNC(=O)[C@]1(C)CC[C@@H](Nc2ncc3c(Br)nn(-c4cc(OCC5(F)CNC5)cc(OC(F)(F)F)c4)c3n2)C1 [(1R,3R)-3-[[3-bromo-1-[3-[(3-fluoroazetidin-3-yl)methoxy]-5-(trifluoromethoxy)phenyl]pyrazolo[3,4-d]pyrimidin-6-yl]amino]-N,1-dimethyl-cyclopentanecarboxamide] | 25 to 200 |
| CNC(=O)[C@]1(C)CC[C@@H](Nc2ncc3c(Br)nn(-c4cc(C#N)cc(OCCO)c4)c3n2)C1 [(1R,3R)-3-[[3-bromo-1-[3-cyano-5-(2-hydroxyethoxy)phenyl]pyrazolo[3,4-d]pyrimidin-6-yl]amino]-N,1-dimethyl-cyclopentanecarboxamide] | 25 to 200 |
| CNC(=O)[C@]1(C)CC[C@@H](Nc2ncc3c(Br)nn(-c4ccc5nc(OC)ccc5c4)c3n2)C1 [(1R,3R)-3-[[3-bromo-1-(2-methoxy-6-quinolyl)pyrazolo[3,4-d]pyrimidin-6-yl]amino]-N,1-dimethyl-cyclopentane-carboxamide] | 25 to 200 |
| CNC(=O)[C@]1(C)CC[C@@H](Nc2ncc3c(Br)nn(-c4ccc(-c5ncco5)c([C@H](C)CN)c4)c3n2)C1 [(1R,3R)-3-[[1-[3-[(1S)-2-amino-1-methyl-ethyl]-4-oxazol-2-yl-phenyl]-3-bromo-pyrazolo[3,4-d]pyrimidin-6-yl]amino]-N,1-dimethyl-cyclopentanecarboxamide] | 25 to 200 |
| CNC(=O)[C@]1(C)CC[C@@H](Nc2ncc3c(Br)nn(-c4cc(/C=C/S(C)(=O)=O)c5ncccc5c4)c3n2)C1 [(1R,3R)-3-[[3-bromo-1-[8-[(E)-2-methyl-sulfonylvinyl]-6-quinolyl]pyrazolo[3,4-d]pyrimidin-6-yl]amino]-N,1-dimethyl-cyclopentanecarboxamide] | < 25 |
| CNC(=O)[C@]1(C)CC[C@@H](Nc2ncc3c(Br)nn(-c4cc(F)cc(CCO)c4)c3n2)C1 [(1R,3R)-3-[[3-bromo-1-[3-fluoro-5-(2-hydroxyethyl)phenyl]pyrazolo [3,4-d]pyrimidin-6-yl]amino]-N,1-dimethyl-cyclopentanecarboxamide] | < 25 |
| CNC(=O)[C@]1(C)CC[C@@H](Nc2ncc3c(Br)nn(-c4ccc5c(c4)OCC(=O)N5CCO)c3n2)C1 [(1R,3R)-3-[[3-bromo-1-[4-(2-hydroxy-ethyl)-3-oxo-1,4-benzoxazin-7-yl]pyrazolo[3,4-d]pyrimidin-6-yl]amino]-N,1-dimethyl-cyclopentanecarboxamide] | 25 to 200 |
| CNC(=O)[C@]1(C)CC[C@@H](Nc2ncc3c(Br)nn(-c4ccc(-c5ncco5)c([C@@H]5CCNC5)c4)c3n2)C1 [(1R,3R)-3-[[3-bromo-1-[4-oxazol-2-yl-3-[(3S)-pyrrolidin-3-yl]phenyl]pyrazolo[3,4-d]pyrimidin-6-yl]amino]-N,1-dimethyl-cyclopentanecarboxamide] | < 25 |
| CNC(=O)[C@]1(C)CC[C@@H](Nc2ncc3c(Br)nn(-c4ccc5nc[nH]c(=O)c5c4)c3n2)C1 | 25 to 200 |
| N#Cc1cc(-n2nc(Br)c3cnc(N[C@@H]4CC[C@@H](C(=O)N5CC(F)C5)C4)nc32)cc2cccnc12 [6-(3-bromo-6-(((1R,3R)-3-(3-fluoroazetidine-1-carbonyl)cyclopentyl)amino)-1H-pyrazolo [3,4-d]pyrimidin-1-yl)quinoline-8-carbonitrile] | < 25 |
| CNC(=O)[C@]1(C)CCC(Nc2ncc3c(Br)nn(-c4ccc5nn(CCN)cc5c4)c3n2)C1 (stereo partly drawn) [(1R)-3-[[1-[2-(2-aminoethyl)indazol-5-yl]-3-bromo-pyrazolo[3,4-d]pyrimidin-6-yl]amino]-N,1-dimethyl-cyclopentane-carboxamide] | 25 to 200 |
| C[C@H]1CN(C(=O)[C@@H]2CC[C@@H](Nc3ncc4c(Br)nn(-c5ccc6ncccc6c5)c4n3)C2)C[C@H](C)N1 [((1R,3R)-3-((3-bromo-1-(quinolin-6-yl)-1H-pyrazolo[3,4-d]pyrimidin-6-yl)amino)cyclo-pentyl)((3S,5S)-3,5-dimethylpiperazin-1-yl)methanone] | 25 to 200 |
| CNC(=O)[C@]1(C)CC[C@@H](Nc2ncc3c(Br)nn(-c4ccc(-c5nnc(C(=O)N6CCNCC6)s5)cc4)c3n2)C1 [(1R,3R)-3-[[3-bromo-1-[4-[5-(piperazine-1-carbonyl)-1,3,4-thiadiazol-2-yl]phenyl]pyrazolo[3,4-d]pyrimidin-6-yl]amino]-N,1-dimethyl-cyclopentanecarboxamide] | 25 to 200 |
| CNC(=O)[C@]1(C)CC[C@@H](Nc2ncc3c(Br)nn(-c4ccc(-c5nnc(C(C)(C)N)s5)c(C#N)c4)c3n2)C1 [(1R,3R)-3-[[1-[4-[5-(1-amino-1-methyl-ethyl)-1,3,4-thiadiazol-2-yl]-3-cyano-phenyl]-3-bromo-pyrazolo[3,4-d]pyrimidin-6-yl]amino]-N,1-dimethyl-cyclopentanecarboxamide] | 25 to 200 |
| CNC(=O)[C@@H]1CC[C@@H](Nc2ncc3c(Br)nn(-c4cc(OC)c5ncccc5c4)c3n2)C1 [(1R,3R)-3-[[3-bromo-1-(8-methoxy-6-quinolyl)pyrazolo[3,4-d]pyrimidin-6-yl]amino]-N-methyl-cyclopentanecarboxamide] | < 25 |
| CNC(=O)[C@]1(C)CC[C@@H](Nc2ncc3c(Br)nn(-c4cc(C#N)cc(CCC5CNC5)c4)c3n2)C1 [(1R,3R)-3-[[1-[3-[2-(azetidin-3-yl)ethyl]-5-cyano-phenyl]-3-bromo-pyrazolo[3,4-d]pyrimidin-6-yl]amino]-N,1-dimethyl-cyclopentanecarboxamide] | 25 to 200 |
| CNC(=O)[C@]1(CC(F)F)CC[C@@H](Nc2ncc3c(Br)nn(-c4cc(F)c5ncccc5c4)c3n2)C1 [(1R,3R)-3-[[3-bromo-1-(8-fluoro-6-quinolyl)pyrazolo[3,4-d]pyrimidin-6-yl]amino]-1-(2,2-difluoroethyl)-N-methyl-cyclopentane-carboxamide] | < 25 |
| CNC(=O)C1(C#N)CC[C@@H](Nc2ncc3c(Br)nn(-c4cc(Cl)cc([C@H](C)N)c4)c3n2)C1 (stereo partly drawn) [(3R)-3-[[1-[3-[(1S)-1-aminoethyl]-5-chloro-phenyl]-3-bromo-pyrazolo[3,4-d]pyrimidin-6-yl]amino]-1-cyano-N-methyl-cyclo-pentanecarboxamide; 2,2,2-trifluoroacetic acid] | 25 to 200 |
| CNC(=O)[C@]1(C)CC[C@@H](Nc2ncc3c(Br)nn(-c4ccc(C#N)c(CO)c4)c3n2)C1 [(1R,3R)-3-[[3-bromo-1-[4-cyano-3-(hydroxymethyl)phenyl]pyrazolo[3,4-d]pyrimidin-6-yl]amino]-N,1-dimethyl-cyclopentanecarboxamide] | 25 to 200 |
| COc1ccc(-n2nc(Br)c3cnc(N[C@@H]4CC[C@@H](C(=O)N5CCN(C)C(=O)C5)C4)nc32)cc1C#N [5-(3-bromo-6-(((1R,3R)-3-(4-methyl-3-oxo-piperazine-1-carbonyl)cyclopentyl)amino)-1H-pyrazolo[3,4-d]pyrimidin-1-yl)-2-methoxybenzonitrile] | 200 to 500 |
